# Laboratory results as given in US20190289874A1, “STAIN PREVENTION FORMULATIONS” (WM. WRIGLEY JR. COMPANY, priority 2016, published 2019).
# Experiment: In vitro bovine teeth test (stain prevention solutions)
# Conditions: for concentration showing a significant visible whitening effect: % by weight of solution, bovine teeth test; for stain-prevention effect: bovine teeth tests, dose response of solutions of Table 1 (FIG. 1), change in whitening index
# Procedure: HAD assay and the bovine teeth test were employed by methods generally known in the art for screening stain prevention actives. HAD assays generally included pre-coating a HAD disc with saliva for 1-2 hours and subsequently exposing the disc to a staining broth containing tea, coffee, gastric mucin, trypticase soy broth and saliva for four days. Each day, the disc was moved from staining broth to a solution with a stain prevention formulation three times. The process was repeated for four days. The disc was dried and the color was measured. […] The color of the bovine teeth was measured before and after staining.
# To evaluate stain prevention effect, the whitening index of the teeth before and after staining and treatment was calculated. The white index, W, is defined as:
# W*=√{square root over ((L*−1.00)^2+(a*)^2+(b*)^2)}
# A pure white substance will have W value of […]. The higher the value of ΔW, the whiter the sample would be.
# In total, 4-6 HA discs or bovine teeth were tested for each compound or combination. The values were averaged.
SMILES,concentration showing a significant visible whitening effect [%],stain-prevention effect,relative effectiveness for stain prevention (comparison between compounds or combinations)
"CCCCCCCCCCCC(=O)N[C@@H](CCCN=C(N)N)C(=O)OCC [LAE, lauroyl arginine ethyl ether]",≥ 0.05,very effective,–
"O=P([O-])([O-])OP(=O)([O-])[O-].[Na+].[Na+].[Na+].[Na+] [SPP, sodium pyrophosphate]",–,very effective,–
"O=P(O)(O)OP(=O)(O)OP(=O)(O)O [STP, sodium tripolyphosphate]",≥ 0.1,very effective,more effective
"NC(N)=O [Urea, urea]",–,very effective,–
"OO [hydrogen peroxide, reference compound]",≥ 0.25,–,–
